From patent US20060111289A1, “Compositions and methods of using Alpha-fetoprotein growth inhibitory peptides” (Serometrix, LLC,, priority 2004, published 2006)
Marks after values point to notes of the source that are not given here. Where a SMILES comes first, the peptide text is derived from it.

Assays:
[1] = system: LNCaP human prostate tumor cells; assay: Whole-cell voltage clamp of LNCaP cells; type: cell-based; conditions: peptide 10 μM, voltage ramp −100-100 mV (400 ms duration)
Experimental: LNCaP human prostate tumor cells were cultured on 5×5 mm plastic coverslips and were transferred to a microperfusion chamber on the stage of an inverted microscope. Whole-cell voltage clamp was accomplished with an Axopatch 200B (Axon Instr. Co., Union City, Calif.) using ruptured patches. Borosilicate glass capillaries (1.2 mm OD, 0.68 ID, type EN-I, Garner Glass Co., Claremont, Calif.) were used to fabricate patch pipettes (3-8 MΩ in the bath solution) with a Brown-Flaming horizontal micropipette puller (P-87, Sutter Instruments, San Rafael, Calif.). Patch-pipette tips were heat-polished prior to use. A micromanipulator (Narishige) fixed to the microscope positioned the pipettes. Electrode capacitance and access resistance were compensated prior to measurements. All experiments will be performed at room temperature (20-22° C.). The standard extracellular salt solution for ion currents contained (in mM): 150 NaCl, 6 KCl, 1.5 CaCl2, 1 MgCl2, 10 HEPES, 10 glucose, and pH adjusted to 7.4 with 1 N NaOH. […] Electrophysiological recordings were procured and analyzed using PClamp8 software (Axon Instr. Co, Union City, Calif.) and the WinASCD software (Guy Droogmans, Katholieke Universiteit; Leuven, B E). All results were recorded on computer hard drive or on digital audio tape (DAT). […]

human platelets = assay: Platelet aggregation in human platelet-rich plasma; type: cell-based; design: % Inhibition Of Activity: Platelet Agg. ADP / % Inhibition Of Activity: Platelet Agg. AA / % Inhibition Of Activity: Platelet Agg. Coll: concentration or dose not given beside the values
Experimental: FIG. 9 presents exemplary data showing platelet aggregation modulation using 0.5 ml of normal human platelet-rich plasma (PRP) with varying amounts of P149 or P 149b using 2.5×10^6 platelets per reaction vessel.
FIG. 10 presents exemplary data showing platelet aggregation activation by arachidonic acid (AA) and collagen using P149-treated platelet suspensions • Panel A1: AA alone; • Panel A2: AA followed by epinephine (EPI) and EPI alone using P149b; • Panel A3: CD62P flow cytometry fluorescence quenching by P149; • Panel B1: collagen alone and collagen+P149; • Panel B2: collagen alone; collagen+P149a showing aggregation diminution.
GIP-derived peptide fragments and/or subfragments have been assayed for platelet aggregation by measuring light transmissions with an aggregometer using a stirred human platelet suspension. Kinlough-Rathbone et al., In: Platelet Aggregation in Measurements of Platelet Function, Eds. Harker L A, Zimmerman T S., Churchill Livingstone, London. pp. 64-87 (1983); and Whittle et al., “Specificity between the anti-aggregatory actions of prostacyclin, prostaglandin Eland D2 on platelets” In: Mechanisms of stimulus—response coupling in platelets, Eds. V. V. K., MacIntyre D E, Scully M F., New York and London: Plenum Press. pp. 109-115 (1985).
The ability of GIP and its fragments were individually examined for aggregation inhibition using citrated human platelet-rich plasma (PRP). The peptides were freshly dissolved in 0.15 M NaCl containing 2.5×10^6 platelets/ml. […]

[2] = system: 6WI-1 mammary tumor cells; assay: Mouse ascites mammary tumor assay (6WI-1 isograft); type: in vivo
Experimental: The growth suppression of the mammary ascites tumor by AFP peptides and its fragments P149a, P149b and P149c, and control peptides were determined in non-estrogen dependent assays which measured tumor cell growth and ascites accumulation of 6WI-1 mammary transplanted NYLAR/nya mice. […] Tumor cell inocula included doses of 0.3, 1.0, and 3.0×10^6 cells which produced host mortality at 12-14 days which was lethal in 100% of the animals. Following peptide dose titration studies, mice inoculated with 6WI-1 mammary cells were injected with a previously-determined optimal dose of 1.0 μg peptide per day or saline for 11 days. On day 12 following inoculation, the total accumulated ascites fluid volume and tumor cells in the peritoneal cavity of each animal were harvested and the cell count determined.
Inoculation of mice with all three cell doses led to an increase in body weight from 25 g (day 0) to approximately […] by day 12, due to the accumulation of tumor cells and ascites fluid in the intraperitoneal cavity. An average cell count in accumulated ascites fluid on day 12 was greater than 10^8 cells/ml with a total ascites volume approximating 20 mls. Tumor cell proliferation in this model has been reported to correlate with the volume of ascites fluid accumulated.
The 6WI-1 mouse mammary tumor studies involving peptide and non-peptide treatment were further compared by histopathological analysis performed on hematoxylin/eosin stained tissue sections.

[3] = system: immature mouse uterine growth; assay: E2-activated immature mouse uterine growth assay; type: in vivo; design: concentration or dose not given beside the values
[4] = system: human kidney tumor cell line
[5] = 6WI-1 mouse mammary ascites tumor

Row | Compound | Slope conductance (membrane conduction) [1] | % Inhibition Of Activity: Platelet Agg. ADP (human platelets; ADP-induced) | % Inhibition Of Activity: Platelet Agg. AA (human platelets; arachidonic acid-induced) | % Inhibition Of Activity: Platelet Agg. Coll (human platelets; collagen-induced) | Inhibition (%) Of Platelet Aggregation, Adenosine Diphosphate (ADP) 2.5 μM (human platelets; peptide inhibitors 30 & 100 μM) | Inhibition (%) Of Platelet Aggregation, Arachidonic Acid (AA) 0.3 mM (human platelets; peptide inhibitors 30 & 100 μM) | Inhibition (%) Of Platelet Aggregation, Collagen (COLL) 2 μg/ml (human platelets; peptide inhibitors 30 & 100 μM) | Inhibition (%) Of Platelet Aggregation, Epinephrine (human platelets; peptide inhibitors 30 & 100 μM) | % Inhibition Of Activity: 6WI-1 Acites Volume [2, 5] | % Inhibition Of Activity: 6WI-1 Body Weight [2, 5] | % Inhibition Of Activity: 6WI-1 Cell Prol [2, 5] | % Inhibition Of Activity: 6WI-1 Peptide Combos ([2]; peptide combination) | % Inhibition Of Activity: Uterine Growth, Enzymatic Fragments [3] | % Inhibition Of Activity: Kidney tumor growth [4]
1 | CC[C@H](C)[C@H](NC(=O)[C@@H]1CSSC[C@H](NC(=O)[C@H](C)NC(=O)[C@H](CC(C)C)NC(=O)[C@H](CC(C)C)NC(=O)[C@H](CCCCN)NC(=O)[C@H](CC(=O)O)NC(=O)[C@H](CCC(=O)O)NC(=O)[C@H](CO)NC(=O)[C@@H](N)CC(C)C)C(=O)NCC(=O)N[C@@H](CCC(=O)O)C(=O)NCC(=O)N[C@@H](C)C(=O)N[C@@H](C)C(=O)N[C@@H](CC(=O)O)C(=O)N[C@@H]([C@@H](C)CC)C(=O)N[C@@H]([C@@H](C)CC)C(=O)N[C@@H]([C@@H](C)CC)C(=O)NCC(=O)N[C@@H](Cc2c[nH]cn2)C(=O)N[C@@H](CC(C)C)C(=O)N1)C(=O)N[C@@H](CCCNC(=N)N)C(=O)N[C@@H](Cc1c[nH]cn1)C(=O)N[C@@H](CCC(=O)O)C(=O)N[C@@H](CCSC)C(=O)N[C@H](C(=O)N1CCC[C@H]1C(=O)N[C@H](C(=O)N[C@@H](CC(N)=O)C(=O)N1CCC[C@H]1C(=O)NCC(=O)N[C@H](C(=O)O)C(C)C)C(C)C)[C@@H](C)O [Cyclic GIP] (HELM PEPTIDE1{L.S.E.D.K.L.L.A.C.G.E.G.A.A.D.I.I.I.G.H.L.C.I.R.H.E.M.T.P.V.N.P.G.V}$PEPTIDE1,PEPTIDE1,9:R3-22:R3$$$V2.0; N-terminus and C-terminus assumed) | 0.78 0.15* nS/pF | – | – | – | – | – | – | – | – | – | – | – | – | –
2 | KDFIHKQGVALQTMKQELINLVKELVKPQIEAVADFSGLL (listed as Homo sapiens) [P192, reference compound] | – | 0% | 0% | 0% | No effect | No effect | No effect | No effect | 0% | 0% | 0% | 0% | 0% | 0%
